For one assay, the system named is C57BL/6 mice. The experiment in a line: Bleomycin-induced lung fibrosis model. The settings on record: Mus musculus, po, 504 h, 0.3 mg/kg orally once a day, three weeks after intratracheal bleomycin 6 mg/kg, vs solvent-administered group, read-out: Inhibitory ratio against the increment in the lung hydroxyproline amount. In kind it is in vivo. The source says:
It is reported that administering bleomycin into the trachea induces fibrosis of the lung. According to the pathological observation, it is similar to clinical idiopathic pulmonary fibrosis in terms of the thickened fibrosis of the alveolar wall, an increase in inflammatory cells, an increment in the amount of hydroxyproline, etc., and is often used as a lung fibrosis experimental model (Biochem. Biophys. Res. Comm., 288, 747 (2001)). Bleomycin hydrochloride (Bleo: Nippon Kayaku Co., Ltd.) dissolved in physiological saline was injected with 500 μl of compressed air into the bronchi of C57BL/6 mice (6 week old, female) at 6 mg/kg and 25 μl/body. Three weeks after the intratracheal administration, the amount of hydroxyproline in the lung was measured. The materials to be tested, at 0.3 mg/kg per dose, were suspended in 0.5% sodium carboxymethyl cellulose, and administered orally once a day. The effect of the present invention is represented by a inhibitory ratio against the increment in the amount of lung hydroxyproline of the solvent-administered group, and is shown in Table 3 below.

Assay [1] relates to PAI-1 production in human bronchial epithelial cells (BEAS-2B). The assay is described as follows: PAI-1 production inhibitory activity using bronchial epithelial cells. The format is cell-based. The settings on record: BEAS-2B cells, TGF-β stimulation, 24 hrs, PAI-1 in supernatant by ELISA. The procedure: The effect of a compound against PAI-1 production activity was investigated using bronchial epithelial cells which reflect the PAI-1 concentration in the lung tissue involved in fibrosis (lung).
The effect against the amount of PAI-1 production was investigated using human bronchial epithelial cells (BEAS-2B). 0.1 ml of the BEAS-2B cells prepared to 2×10^5 cells/ml were added to each of the 96 wells of a collagen I coated plate, and precultured for 24 hrs. Then 0.1 ml of a medium containing […] of TGF-β was added, and after 24 hrs of incubation, the PAI-1 amount in the supernatant of the medium was measured by an ELISA kit. The materials to be tested were, after dissolved in dimethyl sulfoxide (the final concentration: 0.1% or lower), prepared to 0.2, 1, 5, and 25 μM with a phosphate buffer solution, and added to the preculture.

This note sets out measurements from patent US20100324091A1, “Pyrazolone Derivative” (Kowa Company, Ltd., priority 2007, published 2010).

For `COc1ccc(C2=NNC(=O)C2)cc1OC1Cc2ccccc2C1` [Compound No. 1, 3-(3-(2-indanyloxy)-4-methoxyphenyl)-5-pyrazolone], the inhibition in vivo at 0.3 mg/kg with C57BL/6 mice was found to be 77%.

As for `COc1ccc(C2=NN(C)C(=O)C2)cc1OC1Cc2ccccc2C1` [Compound No. 2, 3-(3-(2-indanyloxy)-4-methoxyphenyl)-1-methyl-5-pyrazolone], the IC50 – broadly, the concentration that inhibits the measured activity by half – in assay [1] was 1420 nM. The inhibition in vivo at 0.3 mg/kg in the assay with C57BL/6 mice turned out to be 75%.

`COc1ccc(C2=NNC(=O)C2)cc1OC1CCCC1` [Compound No. 3, 3-(3-(cyclopentyloxy)-4-methoxyphenyl)-5-pyrazolone] had an IC50 in assay [1] of 7590 nM. Also, the inhibition in vivo at 0.3 mg/kg in the assay on C57BL/6 mice came to 73%.

As for `COc1ccc(C2=NN(C)C(=O)C2)cc1OC1CCCC1` [Compound No. 4, 3-(3-(cyclopentyloxy)-4-methoxyphenyl)-1-methyl-5-pyrazolone], the inhibition in vivo at 0.3 mg/kg in the assay with C57BL/6 mice worked out at 73%.

In the case of `COc1ccc(C2=NN(c3ccccc3)C(=O)C2)cc1OC1Cc2ccccc2C1` [Compound No. 5, 3-(3-(2-indanyloxy)-4-methoxyphenyl)-1-phenyl-5-pyrazolone], in the assay with C57BL/6 mice, the inhibition in vivo at 0.3 mg/kg was 75%.

Regarding `COc1ccc(C2=NN(c3ccccc3)C(=O)C2)cc1OC1CCCC1` [Compound No. 6, 3-(3-(cyclopentyloxy)-4-methoxyphenyl)-1-phenyl-5-pyrazolone], the IC50 in assay [1] was 2560 nM. In addition, the inhibition in vivo at 0.3 mg/kg with C57BL/6 mice came out at 52%.

As for `COc1ccc(C2=NN(c3ccc(C(=O)O)cc3)C(=O)C2)cc1OC1CCCC1` [Compound No. 7, 3-(3-(cyclopentyloxy)-4-methoxyphenyl)-1-(4-hydroxycarbonylphenyl)-5-pyrazolone], the inhibition in vivo at 0.3 mg/kg in the assay on C57BL/6 mice came to 57%.

For `O=C1CC(c2ccc(OC(F)F)c(OC3CCCC3)c2)=NN1` [Compound No. 8, 3-(3-(cyclopentyloxy)-4-(difluoromethoxy)phenyl)-5-pyrazolone], in the assay on C57BL/6 mice, the inhibition in vivo at 0.3 mg/kg is 61%.

For the compound `COc1ccc(C2=NNC(=O)C2)cc1OCC1CC1` [Compound No. 9, 3-(3-(cyclopropylmethoxy)-4-methoxyphenyl)-5-pyrazolone], the inhibition in vivo at 0.3 mg/kg in the assay on C57BL/6 mice was found to be 60%.
